pIC50: −log10 of the molar value. Where a name gives a salt, the structure may show the parent alone. Read-outs that look alike come from different tables or passages of the source.

Assay [1] deals with B. mandrillaris. The note with it: previous in vitro testing, cited from earlier work; for effect against B. mandrillaris: in words.
Assay [2] has as its system Acanthamoeba castellanii trophozoites. Briefly: Activity against Acanthamoeba castellanii trophozoites. The conditions noted are these: read-out: A. cactellanii Trophozoite IC50. The assay is classed as cell-based.
The subject of assay [3] is A549 cells. The assay is described as follows: Toxicity to human A549 cells. Format: cell-based. The conditions noted are these: human A549 cells; read-out: A549 cell IC50.
Assay [4] deals with Acanthamoeba castellanii (ATCC50370) cysts. Briefly: Encystation drug susceptibility / excystation viability assay, 30 day recovery, A. castellanii cysts. Format: cell-based. The conditions noted are these: ATCC50370, 720 h, minimum cysticidal concentration, no recovery up to 30 days, read-out: A. castellanii 30 day MCC.
Assay [5] concerns Acanthamoeba healyi cysts. The assay is described as follows: Encystation drug susceptibility / excystation viability assay, 30 day recovery, A. healyi cysts. The note with it: 720 h, minimum cysticidal concentration, no recovery up to 30 days, read-out: A. healyi 30 day MCC. The assay is classed as cell-based.
Assay [6] has as its system Acanthamoeba culbertsoni (ATCC30171) cysts. The assay is described as follows: Encystation drug susceptibility / excystation viability assay, 30 day recovery, A. culbertsoni cysts. The conditions noted are these: ATCC30171, 720 h, minimum cysticidal concentration, no recovery up to 30 days, read-out: A. culbertsoni 30 day MCC. Format: cell-based.
In assay [7] the test system is Acanthamoeba cysts. Briefly: 30 day cysticidal studies, species not given. The assay is classed as cell-based. The conditions noted are these: for cysticidal activity over 30 day period: in words; for selectivity index (SI): text b496, A549 IC50 versus 30 day MCC. As to the method:
As cells were removed during the 5× media changes for the 30 day time point at concentrations of drugs that allowed excystation, only qualitative, microscopic analysis was performed.

As for `C[C@@H]1[C@H](O)[C@@H](C)/C=C/C=C/C=C/C=C/C=C/C=C/C=C/[C@H](O[C@@H]2O[C@H](C)[C@@H](O)[C@H](N)[C@@H]2O)C[C@@H]2O[C@](O)(C[C@@H](O)C[C@@H](O)[C@H](O)CC[C@@H](O)C[C@@H](O)CC(=O)O[C@H]1C)C[C@H](O)[C@H]2C(=O)O` [amphotericin B], the “effect against B. mandrillaris” value in assay [1] is “marginal effects”.
For `N=C(N)c1ccc(OCCCCCOc2ccc(C(=N)N)cc2)cc1` [pentamidine], the “concentration at which most effective drug against B. mandrillaris” value was 29.38 µM in assay [1] (same value in μM) and 10 µg/mL in assay [1].
The term pIC50 denotes the IC50 on a negative log10 scale, so that one unit is a factor of ten. On to `CCCCC(CC)CNC(=N)NC(=N)NCCCCCCNC(=N)NC(=N)NCC(CC)CCCC` (stereo not shown) [Alexidine HCL, alexidine, reference compound], for which the negative-log IC50 (pIC50) was 5.77 in assay [2] and 5.80 in assay [3]. For the same molecule, the MCC in assay [4], in assay [5] and in assay [6] was 5.37 µM in each case. In addition, the “cysticidal activity over 30 day period” value in assay [7] is recorded as “shows cysticidal activity”. Moreover, the “selectivity index (SI)” value in assay [7] was found to be 0.29.
On to `CC[C@H]1OC(=O)[C@H](C)[C@@H](O[C@H]2C[C@@](C)(OC)[C@@H](O)[C@H](C)O2)[C@H](C)[C@@H](O[C@@H]2O[C@H](C)C[C@H](N(C)C)[C@H]2O)[C@](C)(OC)C[C@@H](C)C(=O)[C@H](C)[C@@H](O)[C@]1(C)O` [clarithromycin], for which, in assay [1], the “effect against B. mandrillaris” value is “no effect”.
Turning to `CC[C@H]1OC(=O)[C@H](C)[C@@H](O[C@H]2C[C@@](C)(OC)[C@@H](O)[C@H](C)O2)[C@H](C)[C@@H](O[C@@H]2O[C@H](C)C[C@H](N(C)C)[C@H]2O)[C@](C)(O)C[C@@H](C)CN(C)[C@H](C)[C@@H](O)[C@]1(C)O` [azithromycin], the “effect against B. mandrillaris” value in assay [1] is reported as “no effect”.
Take `N=C(NCCCCCCNC(=N)NC(=N)Nc1ccc(Cl)cc1)NC(=N)Nc1ccc(Cl)cc1` [Chlorhexidine, chlorhexidine, reference compound]: the results for the pIC50 in assay [2] and in assay [3] were 6.00 and 5.51, respectively. The MCC in assay [4], in assay [5] and in assay [6] was 100 µM each time. Also, in assay [7], the “cysticidal activity over 30 day period” value is reported as “little cysticidal activity”. Moreover, in assay [7], the “selectivity index (SI)” value came to 0.03.

(Values after US12433872B2, “Treatment of Acanthamoeba or Balamuthia trophozoites and/or cysts” (GEORGIA STATE UNIVERSITY RESEARCH FOUNDATION, INC., priority 2018, dated 2025).)
